# From ChEMBL document CHEMBL4000186, “Design and synthesis of novel 2-substituted 11-keto-boswellic acid heterocyclic derivatives as anti-prostate cancer agents with Pin1 inhibition ability” (Eur J Med Chem, 2017)
# Experiments:
# PC-3 [1] = assay: Anti-proliferative activity against human PC3 cells measured after 96 hrs by MTT assay; type: functional; conditions: PC-3, 96 h
# LNCaP = assay: Anti-proliferative activity against human LNCAP cells measured after 96 hrs by MTT assay; type: functional
# PC-3 [2] = assay: Cell cycle arrest in human PC3 cells assessed as accumulation at sub G1 phase at 1 uM after 12 hrs by propidium iodide staining based flow cytometry (reference value: 1.6 %); type: functional
# PC-3 [3] = assay: Cell cycle arrest in human PC3 cells assessed as accumulation at G0/G1 phase at 1 uM after 12 hrs by propidium iodide staining based flow cytometry (reference value: 65.6 %); type: functional
# PC-3 [4] = assay: Cell cycle arrest in human PC3 cells assessed as accumulation at G2/M phase at 1 uM after 12 hrs by propidium iodide staining based flow cytometry (reference value: 22.4 %); type: functional
# PC-3 [5] = assay: Cell cycle arrest in human PC3 cells assessed as accumulation at sub G1 phase at 2.5 uM after 12 hrs by propidium iodide staining based flow cytometry (reference value: 1.6 %); type: functional
# PC-3 [6] = assay: Cell cycle arrest in human PC3 cells assessed as accumulation at G0/G1 phase at 2.5 uM after 12 hrs by propidium iodide staining based flow cytometry (reference value: 65.6 %); type: functional
# PC-3 [7] = assay: Cell cycle arrest in human PC3 cells assessed as accumulation at G2/M phase at 2.5 uM after 12 hrs by propidium iodide staining based flow cytometry (reference value: 22.4 %); type: functional
# PC-3 [8] = assay: Cell cycle arrest in human PC3 cells assessed as accumulation at sub G1 phase at 5 uM after 12 hrs by propidium iodide staining based flow cytometry (reference value: 1.6 %); type: functional
# PC-3 [9] = assay: Cell cycle arrest in human PC3 cells assessed as accumulation at G0/G1 phase at 5 uM after 12 hrs by propidium iodide staining based flow cytometry (reference value: 65.6 %); type: functional
# PC-3 [10] = assay: Cell cycle arrest in human PC3 cells assessed as accumulation at G2/M phase at 5 uM after 12 hrs by propidium iodide staining based flow cytometry (reference value: 22.4 %); type: functional
# PC-3 [11] = assay: Cell cycle arrest in human PC3 cells assessed as accumulation at sub G1 phase at 1 uM after 24 hrs by propidium iodide staining based flow cytometry (reference value: 1.9 %); type: functional
# PC-3 [12] = assay: Cell cycle arrest in human PC3 cells assessed as accumulation at G0/G1 phase at 1 uM after 24 hrs by propidium iodide staining based flow cytometry (reference value: 63.9 %); type: functional
# PC-3 [13] = assay: Cell cycle arrest in human PC3 cells assessed as accumulation at G2/M phase at 1 uM after 24 hrs by propidium iodide staining based flow cytometry (reference value: 22.7 %); type: functional
# PC-3 [14] = assay: Cell cycle arrest in human PC3 cells assessed as accumulation at sub G1 phase at 2.5 uM after 24 hrs by propidium iodide staining based flow cytometry (reference value: 1.9 %); type: functional
# PC-3 [15] = assay: Cell cycle arrest in human PC3 cells assessed as accumulation at G0/G1 phase at 2.5 uM after 24 hrs by propidium iodide staining based flow cytometry (reference value: 63.9 %); type: functional
# PC-3 [16] = assay: Cell cycle arrest in human PC3 cells assessed as accumulation at G2/M phase at 2.5 uM after 24 hrs by propidium iodide staining based flow cytometry (reference value: 22.7 %); type: functional
# PC-3 [17] = assay: Cell cycle arrest in human PC3 cells assessed as accumulation at sub G1 phase at 5 uM after 24 hrs by propidium iodide staining based flow cytometry (reference value: 1.9 %); type: functional
# PC-3 [18] = assay: Cell cycle arrest in human PC3 cells assessed as accumulation at G0/G1 phase at 5 uM after 24 hrs by propidium iodide staining based flow cytometry (reference value: 63.9 %); type: functional
# PC-3 [19] = assay: Cell cycle arrest in human PC3 cells assessed as accumulation at G2/M phase at 5 uM after 24 hrs by propidium iodide staining based flow cytometry (reference value: 22.7 %); type: functional
# PC-3 [20] = assay: Induction of apoptosis in human PC3 cells assessed as decrease in pro-caspase 3 level measured after 24 hrs by Western blot method; type: functional, cell-based
# PC-3 [21] = assay: Induction of apoptosis in human PC3 cells assessed as decrease in pro-caspase 8 level measured after 24 hrs by Western blot method; type: functional, cell-based
# PC-3 [22] = assay: Induction of apoptosis in human PC3 cells assessed as decrease in pro-caspase 9 level measured after 24 hrs by Western blot method; type: functional, cell-based
# PC-3 [23] = assay: Induction of apoptosis in human PC3 cells assessed as downregulation of Mcl-1 expression measured after 24 hrs by Western blot method; type: functional, cell-based
# PC-3 [24] = assay: Induction of apoptosis in human PC3 cells assessed as downregulation of c-FLIP expression measured after 24 hrs by Western blot method; type: functional, cell-based
# PC-3 [25] = assay: Induction of apoptosis in human PC3 cells assessed as induction of NOXA expression measured after 24 hrs by Western blot method; type: functional, cell-based
# [26] = target: T1, Peptidyl-prolyl cis-trans isomerase NIMA-interacting 1 (Homo sapiens, UniProt Q13526); assay: Inhibition of Pin1 in human PC3 cells assessed as downregulation of cyclin D1 expression measured after 24 hrs by Western blot method; type: cell-based
# [27] = target: T1, Peptidyl-prolyl cis-trans isomerase NIMA-interacting 1; assay: Inhibition of Pin1 (unknown origin) using Suc-Ala-Glu-cis-Pro-Phe-4-nitroanilide as substrate preincubated for 30 mins followed by substrate addition measured for 90 secs by protease-enzyme coupled assay
# T1 sequence (Q13526 whole entry): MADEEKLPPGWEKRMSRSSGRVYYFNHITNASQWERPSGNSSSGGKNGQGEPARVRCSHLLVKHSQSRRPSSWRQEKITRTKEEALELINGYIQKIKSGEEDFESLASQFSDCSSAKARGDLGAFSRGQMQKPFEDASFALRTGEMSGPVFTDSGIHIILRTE
compound,measurement,setting,value
C[C@H]1[C@H](C)CC[C@]2(C)CC[C@]3(C)C(=CC(=O)[C@@H]4[C@@]5(C)C=C(C#N)C(=O)[C@](C)(C(=O)N6CCNCC6)[C@@H]5CC[C@]43C)[C@H]12,GI50,PC-3 [1],40 nM
same,GI50,LNCaP,270 nM
same,Activity,PC-3 [2],2.7%
same,Activity,PC-3 [3],58.5%
same,Activity,PC-3 [4],26.1%
same,Activity,PC-3 [5],10.2%
same,Activity,PC-3 [6],52.2%
same,Activity,PC-3 [7],27.6%
same,Activity,PC-3 [8],19.5%
same,Activity,PC-3 [9],47.8%
same,Activity,PC-3 [10],22.8%
same,Activity,PC-3 [11],8%
same,Activity,PC-3 [12],45.4%
same,Activity,PC-3 [13],29.7%
same,Activity,PC-3 [14],34.6%
same,Activity,PC-3 [15],33.7%
same,Activity,PC-3 [16],22%
same,Activity,PC-3 [17],88.1%
same,Activity,PC-3 [18],3.7%
same,Activity,PC-3 [19],1.8%
same,Activity,PC-3 [20],Dose-dependent effect
same,Activity,PC-3 [21],Dose-dependent effect
same,Activity,PC-3 [22],Dose-dependent effect
same,Activity,PC-3 [23],Dose-dependent effect
same,Activity,PC-3 [24],Dose-dependent effect
same,Activity,PC-3 [25],Dose-dependent effect
same,inhibition,[26],Dose-dependent effect
same,IC50,[27],3570 nM
